Laboratory results reported in patent publication EP4667483A1, “HUMAN TRANSFERRIN RECEPTOR-BINDING PEPTIDE” (JCR Pharmaceuticals Co., Ltd., priority 2023, dated 2024).
Numbered stars: 1 amine (or outer) side, 2 acyl side, 3 side chain; on linkers, the order of the positions; unused ones are H or OH. Bridge positions count the residues as written; N and C are the ends. Square brackets hold non-standard residues; d marks the D form. Peptide text beside a SMILES is read from it. * marks the point of attachment. Trp(1-CH2COOH) = N[C@@H](Cc1cn(CC(=O)O)c2ccccc12)C(=O)O; NMePhe(4-COOH) = CN[C@@H](Cc1ccc(C(=O)O)cc1)C(=O)O; X7 = CN([C@@H](Cc1cccc(C(=O)O)c1)C(=O)[*:2])[*:1]; Nle(6-morpholino) = N[C@@H](CCCCN1CCOCC1)C(=O)O; X2 = O=C([C@H](Cc1cn(CCO)c2ccccc12)N[*:1])[*:2]; Phe(3-COOH) = N[C@@H](Cc1cccc(C(=O)O)c1)C(=O)O; NH(CH2CH2O)8Me = COCCOCCOCCOCCOCCOCCOCCOCCN*; NMePhe(3-Cl) = CN[C@@H](Cc1cccc(Cl)c1)C(=O)O; NMePhe(4-Cl) = CN[C@@H](Cc1ccc(Cl)cc1)C(=O)O; 3Pal(6-NH2) = Nc1ccc(C[C@H](N)C(=O)O)cn1; Tyr(3-Me) = Cc1cc(C[C@H](N)C(=O)O)ccc1O; NMeY = CN[C@@H](Cc1ccc(O)cc1)C(=O)O; Nva(3-Et) = CCC(CC)[C@H](N)C(=O)O; NH(CH2CH2O)4Me = COCCOCCOCCOCCN*; PEG4 = NCCOCCOCCOCCOCCC(=O)O; Carboxymethyl = O=C(O)C*

Columns and labels:
Type in all cases: binding
[1] = biological target: T1, human transferrin receptor (hTfR) (Homo sapiens, UniProt P02786); experiment: SPR measurement under pH 7.4 conditions (Biacore T200, CM3 chip, hTfR captured by His Tag antibody); conditions: SPR, pH 7.4; read-out: hTfR SPR pH7.4 KD
T1 sequence (P02786 whole entry): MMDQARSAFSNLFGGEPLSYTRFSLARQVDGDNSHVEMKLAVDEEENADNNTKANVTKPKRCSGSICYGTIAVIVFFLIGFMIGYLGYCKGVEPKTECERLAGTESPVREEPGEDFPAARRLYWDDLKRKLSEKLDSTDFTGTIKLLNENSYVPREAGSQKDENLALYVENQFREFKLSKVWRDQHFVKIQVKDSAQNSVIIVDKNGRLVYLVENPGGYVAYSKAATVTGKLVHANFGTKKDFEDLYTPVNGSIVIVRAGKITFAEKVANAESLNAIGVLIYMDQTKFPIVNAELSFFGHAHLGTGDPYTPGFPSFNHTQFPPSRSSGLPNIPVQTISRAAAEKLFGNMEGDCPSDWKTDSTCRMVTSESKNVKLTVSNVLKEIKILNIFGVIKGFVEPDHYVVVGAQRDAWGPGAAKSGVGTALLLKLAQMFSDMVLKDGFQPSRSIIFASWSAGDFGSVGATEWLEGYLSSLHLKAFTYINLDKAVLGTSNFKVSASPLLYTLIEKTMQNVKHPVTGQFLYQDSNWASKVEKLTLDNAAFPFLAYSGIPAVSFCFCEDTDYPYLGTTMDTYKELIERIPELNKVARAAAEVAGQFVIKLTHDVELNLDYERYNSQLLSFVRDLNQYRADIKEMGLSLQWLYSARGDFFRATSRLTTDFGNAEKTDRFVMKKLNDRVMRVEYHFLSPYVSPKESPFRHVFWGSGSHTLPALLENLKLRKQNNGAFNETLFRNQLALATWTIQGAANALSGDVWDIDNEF

[2] = biological target: T1, human transferrin receptor (hTfR); experiment: Evaluation of pH dependence (ratio of SPR koff or KD at pH 6.0 to pH 7.4); conditions: ratio of koff at pH 6.0 to pH 7.4
Description: The ratio of the calculated koff or KD values under pH 6.0 conditions to those under pH 7.4 conditions was calculated to check pH dependency.

[3] = biological target: T1, human transferrin receptor (hTfR); experiment: SPR measurement under pH 6.0 conditions (Biacore T200, NTA chip, immobilized hTfR); conditions: SPR, pH 6.0; read-out: hTfR SPR pH6.0 KD

| Kd [1] [nM] | dependency koff pH6.0/7.4 [2] | Kd [3] [nM] | Structure (SMILES) |
| --- | --- | --- | --- |
| 6.85 | 20.00 | 42.4 | CC[C@H](C)[C@@H]1NC(=O)[C@H](Cc2ccc(OCC(=O)O)cc2)NC(=O)[C@H](Cc2ccc(N)nc2)NC(=O)[C@H](CC(N)=O)NC(=O)[C@H](Cc2c[nH]c3ccccc23)NC(=O)[C@H](C(C)C)NC(=O)[C@H](Cc2cccc(Cl)c2)N(C)C(=O)[C@H](C(C)C)NC(=O)[C@H](C)NC(=O)CSC[C@@H](C(=O)NCCOCCOCCOCCOCCC(N)=O)NC(=O)[C@H](Cc2ccc(O)cc2)N(C)C(=O)[C@H](Cc2cccc(C(=O)O)c2)NC(=O)[C@H](CCCNC(=N)N)NC(=O)[C@H](CCC(=O)NCCOCCOCCOCCOC)NC(=O)[C@H]([C@@H](C)CC)NC1=O [compound 70] ({CH2CO}-AV[NMePhe(3-Cl)]VWN[3Pal(6-NH2)]Y(Carboxymethyl)IIE(NH(CH2CH2O)4Me)R[Phe(3-COOH)][NMeY]C[PEG4]-NH2; thioether N-15) |
| 6.96 | 8.60 | 51.1 | CCC(CC)[C@@H]1NC(=O)[C@H](Cc2ccc(OCC(=O)O)cc2)NC(=O)[C@H](Cc2ccc(O)cc2)NC(=O)[C@H](CC(N)=O)NC(=O)[C@H](Cc2cn(CC(=O)O)c3ccccc23)NC(=O)[C@H](C(C)C)NC(=O)[C@H](Cc2cccc(Cl)c2)N(C)C(=O)[C@H](C(C)C)NC(=O)[C@H](C)NC(=O)CSC[C@@H](C(=O)NCCOCCOCCOCCOCCC(N)=O)NC(=O)[C@H](Cc2ccc(O)cc2)N(C)C(=O)[C@H](Cc2cccc(C(=O)O)c2)NC(=O)[C@H](CCCNC(=N)N)NC(=O)[C@H](CCC(N)=O)NC(=O)[C@H]([C@@H](C)CC)NC1=O [compound 88] ({CH2CO}-AV[NMePhe(3-Cl)]V[Trp(1-CH2COOH)]NYY(Carboxymethyl)[Nva(3-Et)]IQR[Phe(3-COOH)][NMeY]C[PEG4]-NH2; thioether N-15) |
| 43.7 | 32.62 | 144 | CCC(CC)[C@@H]1NC(=O)[C@H](Cc2ccc(OCC(=O)O)cc2)NC(=O)[C@H](Cc2ccc(N)nc2)NC(=O)[C@H](CC(N)=O)NC(=O)[C@H](Cc2cn(CC(=O)O)c3ccccc23)NC(=O)[C@H](C(C)C)NC(=O)[C@H](Cc2cccc(Cl)c2)N(C)C(=O)[C@H](C(C)C)NC(=O)[C@H](C)NC(=O)CSC[C@@H](C(=O)NCCOCCOCCOCCOCCC(N)=O)NC(=O)[C@H](Cc2ccc(O)cc2)N(C)C(=O)[C@H](Cc2cccc(C(=O)O)c2)NC(=O)[C@H](CCCCN2CCOCC2)NC(=O)[C@H](CCCCN2CCOCC2)NC(=O)[C@H]([C@@H](C)CC)NC1=O [compound 83] ({CH2CO}-AV[NMePhe(3-Cl)]V[Trp(1-CH2COOH)]N[3Pal(6-NH2)]Y(Carboxymethyl)[Nva(3-Et)]I[Nle(6-morpholino)][Nle(6-morpholino)][Phe(3-COOH)][NMeY]C[PEG4]-NH2; thioether N-15) |
| 45.3 | 3.53 | 76.2 | CC[C@H](C)[C@@H]1NC(=O)[C@H](Cc2ccc(OCC(=O)O)cc2)NC(=O)[C@H](Cc2ccc(O)cc2)NC(=O)[C@H](CC(=O)NC)NC(=O)[C@H](Cc2c[nH]c3ccccc23)NC(=O)[C@H](C(C)C)NC(=O)[C@H](Cc2cccc(Cl)c2)N(C)C(=O)[C@H](C(C)C)NC(=O)[C@H](C)NC(=O)CSC[C@@H](C(=O)NCCOCCOCCOCCOCCC(N)=O)NC(=O)[C@H](Cc2ccc(O)cc2)N(C)C(=O)[C@H](Cc2cccc(C(=O)O)c2)NC(=O)[C@H](CCCNC(=N)N)NC(=O)[C@H](CCC(N)=O)NC(=O)[C@H]([C@@H](C)CC)NC1=O [compound 74] ({CH2CO}-AV[NMePhe(3-Cl)]VWD(NHMe)YY(Carboxymethyl)IIQR[Phe(3-COOH)][NMeY]C[PEG4]-NH2; thioether N-15) |
| 27.1 | 20.39 | 252 | CCC(CC)[C@@H]1NC(=O)[C@H](Cc2ccc(OCC(=O)O)cc2)NC(=O)[C@H](Cc2ccc(N)nc2)NC(=O)[C@H](CC(N)=O)NC(=O)[C@H](Cc2c[nH]c3ccccc23)NC(=O)[C@H](C(C)C)NC(=O)[C@H](Cc2cccc(Cl)c2)N(C)C(=O)[C@H](C(C)C)NC(=O)[C@H](C)NC(=O)CSC[C@@H](C(=O)NCCOCCOCCOCCOCCC(N)=O)NC(=O)[C@H](Cc2ccc(O)cc2)N(C)C(=O)[C@H](Cc2cccc(C(=O)O)c2)NC(=O)[C@H](CCCNC(=N)N)NC(=O)[C@H](CCC(=O)NCCOCCOCCOCCOCCOCCOCCOCCOC)NC(=O)[C@H]([C@@H](C)CC)NC1=O [compound 82] ({CH2CO}-AV[NMePhe(3-Cl)]VWN[3Pal(6-NH2)]Y(Carboxymethyl)[Nva(3-Et)]IE(NH(CH2CH2O)8Me)R[Phe(3-COOH)][NMeY]C[PEG4]-NH2; thioether N-15) |
| 3.34 | 5.72 |  | CC[C@H](C)[C@@H]1NC(=O)[C@H](Cc2ccc(OCC(=O)O)cc2)NC(=O)[C@H](Cc2ccc(O)cc2)NC(=O)[C@H](CC(N)=O)NC(=O)[C@H](Cc2c[nH]c3ccccc23)NC(=O)[C@H](C(C)C)NC(=O)[C@H](Cc2cccc(Cl)c2)N(C)C(=O)[C@H](C(C)C)NC(=O)[C@H](C)NC(=O)CSC[C@@H](C(=O)NCCOCCOCCOCCOCCC(N)=O)NC(=O)[C@H](Cc2ccc(O)cc2)N(C)C(=O)[C@H](Cc2cccc(C(=O)O)c2)NC(=O)[C@H](CCCNC(=N)N)NC(=O)[C@H](CCC(N)=O)NC(=O)[C@H]([C@@H](C)CC)NC1=O [compound 72] ({CH2CO}-AV[NMePhe(3-Cl)]VWNYY(Carboxymethyl)IIQR[Phe(3-COOH)][NMeY]C[PEG4]-NH2; thioether N-15) |
| 13.8 | 5.47 | 44.1 | CCC(CC)[C@@H]1NC(=O)[C@H](Cc2ccc(OCC(=O)O)cc2)NC(=O)[C@H](Cc2ccc(O)cc2)NC(=O)[C@H](CC(N)=O)NC(=O)[C@H](Cc2cn(CC(=O)O)c3ccccc23)NC(=O)[C@H](C(C)C)NC(=O)[C@H](Cc2cccc(Cl)c2)N(C)C(=O)[C@H](C(C)C)NC(=O)[C@H](C)NC(=O)CSC[C@@H](C(=O)NCCOCCOCCOCCOCCC(N)=O)NC(=O)[C@H](Cc2ccc(Cl)cc2)N(C)C(=O)[C@H](Cc2cccc(C(=O)O)c2)NC(=O)[C@H](CCCNC(=N)N)NC(=O)[C@H](CCC(N)=O)NC(=O)[C@H]([C@@H](C)CC)NC1=O [compound 92] ({CH2CO}-AV[NMePhe(3-Cl)]V[Trp(1-CH2COOH)]NYY(Carboxymethyl)[Nva(3-Et)]IQR[Phe(3-COOH)][NMePhe(4-Cl)]C[PEG4]-NH2; thioether N-15) |
|  | 28.16 |  | CCC(CC)[C@@H]1NC(=O)[C@H](Cc2ccc(OCC(=O)O)cc2)NC(=O)[C@H](Cc2ccc(N)nc2)NC(=O)[C@H](CC(N)=O)NC(=O)[C@H](Cc2cn(CC(=O)O)c3ccccc23)NC(=O)[C@H](C(C)C)NC(=O)[C@H](Cc2cccc(Cl)c2)N(C)C(=O)[C@H](C(C)C)NC(=O)[C@H](C)NC(=O)CSC[C@@H](C(=O)NCCOCCOCCOCCOCCC(N)=O)NC(=O)[C@H](Cc2ccc(C(=O)O)cc2)N(C)C(=O)[C@H](Cc2cccc(C(=O)O)c2)NC(=O)[C@H](CCCCN2CCOCC2)NC(=O)[C@H](CCCCN2CCOCC2)NC(=O)[C@H]([C@@H](C)CC)NC1=O [compound 86] ({CH2CO}-AV[NMePhe(3-Cl)]V[Trp(1-CH2COOH)]N[3Pal(6-NH2)]Y(Carboxymethyl)[Nva(3-Et)]I[Nle(6-morpholino)][Nle(6-morpholino)][Phe(3-COOH)][NMePhe(4-COOH)]C[PEG4]-NH2; thioether N-15) |
|  | 8.08 |  | CCC(CC)[C@@H]1NC(=O)[C@H](Cc2ccc(OCC(=O)O)cc2)NC(=O)[C@H](Cc2ccc(O)c(C)c2)NC(=O)[C@H](CC(N)=O)NC(=O)[C@H](Cc2cn(CC(=O)O)c3ccccc23)NC(=O)[C@H](C(C)C)NC(=O)[C@H](Cc2cccc(Cl)c2)N(C)C(=O)[C@H](C(C)C)NC(=O)[C@H](C)NC(=O)CSC[C@@H](C(=O)NCCOCCOCCOCCOCCC(N)=O)NC(=O)[C@H](Cc2ccc(O)cc2)N(C)C(=O)[C@H](Cc2cccc(C(=O)O)c2)NC(=O)[C@H](CCCNC(=N)N)NC(=O)[C@H](CCC(N)=O)NC(=O)[C@H]([C@@H](C)CC)NC1=O [compound 89] ({CH2CO}-AV[NMePhe(3-Cl)]V[Trp(1-CH2COOH)]N[Tyr(3-Me)]Y(Carboxymethyl)[Nva(3-Et)]IQR[Phe(3-COOH)][NMeY]C[PEG4]-NH2; thioether N-15) |
|  | 13.49 |  | CC[C@H](C)[C@@H]1NC(=O)[C@H](Cc2ccc(OC)cc2)NC(=O)[C@H](Cc2ccc(O)cc2)NC(=O)[C@H](CC(N)=O)NC(=O)[C@H](Cc2c[nH]c3ccccc23)NC(=O)[C@H](C(C)C)NC(=O)[C@H](Cc2cccc(Cl)c2)N(C)C(=O)[C@H](C(C)C)NC(=O)[C@H](C)NC(=O)CSC[C@@H](C(=O)NCCOCCOCCOCCOCCC(N)=O)NC(=O)[C@H](Cc2cccc(C(=O)O)c2)N(C)C(=O)[C@H](Cc2cccc(C(=O)O)c2)NC(=O)[C@H](CCCNC(=N)N)NC(=O)[C@H](CCC(N)=O)NC(=O)[C@H]([C@@H](C)CC)NC1=O [compound 81] ({CH2CO}-AV[NMePhe(3-Cl)]VWNYY(Me)IIQR[Phe(3-COOH)][X7]C[PEG4]-NH2; thioether N-15) |

| Structure (SMILES) | Kd [1] [nM] | dependency koff pH6.0/7.4 [2] | Kd [3] [nM] |
| --- | --- | --- | --- |
| CC[C@H](C)[C@@H]1NC(=O)[C@H](Cc2ccc(OCC(=O)O)cc2)NC(=O)[C@H](Cc2ccc(O)cc2)NC(=O)[C@H](CC(N)=O)NC(=O)[C@H](Cc2cn(CCO)c3ccccc23)NC(=O)[C@H](C(C)C)NC(=O)[C@H](Cc2cccc(Cl)c2)N(C)C(=O)[C@H]([C@@H](C)O)NC(=O)[C@H](C)NC(=O)CSC[C@@H](C(=O)NCCOCCOCCOCCOCCC(N)=O)NC(=O)[C@H](Cc2ccc(O)cc2)N(C)C(=O)[C@H](Cc2cccc(C(=O)O)c2)NC(=O)[C@H](CCCNC(=N)N)NC(=O)[C@H](CCC(N)=O)NC(=O)[C@H]([C@@H](C)CC)NC1=O [compound 77] ({CH2CO}-AT[NMePhe(3-Cl)]V[X2]NYY(Carboxymethyl)IIQR[Phe(3-COOH)][NMeY]C[PEG4]-NH2; thioether N-15) |  | 4.46 |  |
